The source of these data is paper PMC8900595 (Journal of medicinal chemistry, 2021).

Series [1] has as its system A/WSN/33. Kind of series: microbe, parasite or virus in culture. The class given is cell-based, influenza A virus.
Series [2] deals with WSN-PB2-Nanoluc virus. The series can be described thus: microbe, parasite or virus in culture. The class given is cell-based. To be noted: Influenza A virus, HCT-116, read-out: IC50, Nanoluc levels.
In another series the test system is H1N1 A/WSN/1933 virus. In kind it is cell-based, influenza A virus.
Series [3] has as its system H5N1 A/Vietnam/1203/2004 HaLo virus. In kind it is cell-based, influenza A virus. Particulars: 25 μM, MOI = 0.01, 24 h, A549 cells.
The test system of another series is H3N2 A/Panama/1999. In kind it is cell-based, influenza A virus.
The test system of series [4] is HA-mediated membrane fusion. The class given is cell-based, influenza A virus. To be noted: pH 5.
Series [5] concerns A/WSN/33. In kind it is cell-based, influenza A virus.
In series [6] the test system is poly(A) RNA and GAPDH mRNA. The series can be described thus: RNA-FISH and smRNA-FISH of cellular RNA in uninfected cells. The class given is cell-based, human. To be noted: 1 μM.
The next series has as its system influenza virus. In kind it is cell-based.
The subject of series [7] is A/WSN/33. The class given is cell-based, influenza A virus. The source holds these as a separate data set.
Series [8] deals with H1N1 (A/California/07/2009). The class given is cell-based, influenza A virus.
A further series deals with H3N2 (A/Wyoming/03/2003). The class given is cell-based, influenza A virus.
In another series the test system is A549 cells. To be noted: human.
The subject of series [9] is WSN-PB2-Nanoluc virus. The class given is cell-based, influenza A virus.

Usually IC50 stands for the concentration needed to halve the response being measured. In turn, `CCN(c1ccccc1C)S(=O)(=O)c1cc(Cl)ccc1Cl` [compound 1, 2,5-dichloro-N-ethyl-N-(o-tolyl)-benzenesulfonamide] registered a selectivity index with A/WSN/33 [1] greater than 625. For the same compound, the 50% inhibitory concentration (IC50) in the series on WSN-PB2-Nanoluc virus [2] worked out at 0.0168 µM. Moreover, the “reduction of viral titers” value in the series with H1N1 A/WSN/1933 virus was “four”. In series [3], the “reduction of viral titers” value was “four”. The “reduction of viral titers” value in the series with H3N2 A/Panama/1999 is on record as “four”. The “inhibition of fusion (hemolysis)” value in [4] is recorded as “robust inhibition of fusion”. For the same compound, in the series on A/WSN/33 [5], the “viral M mRNA expression, compound added after infection” value was “robustly expressed”; the “viral M mRNA expression, compound added prior to infection” value is “expressed at very low levels”; the “viral mRNA levels (HA, NS1, M1, M2) by qPCR” value was “reduced levels of viral mRNAs”; the “viral mRNA levels (M, HA, NS) by smRNA-FISH” value is “reduced influenza virus (A/WSN/33) mRNA levels”. Besides, the “effect on cellular bulk poly(A) RNA or GAPDH” value in series [6] is listed as “did not have a significant effect”. Moreover, the “viral mRNA levels in primary cells” value with influenza virus was “robustly decreased viral mRNA levels”. Further, in the series on A/WSN/33 [7], the “antiviral activity when used shortly post-infection (western blot NP, M1)” value is on record as “lack of antiviral activity” and the “viral protein levels (western blot)” value is recorded as “reduced levels of influenza virus proteins”. Further, the “number of infected cells” value in series [8] was “robustly reduced the number of cells infected”. Besides, the “number of infected cells” value in the series on H3N2 (A/Wyoming/03/2003) is listed as “slightly inhibited the number of infected cells”. Also, in the series on A549 cells, the “Cytotoxicity (MTT) CC10” value was greater than 25 µM.
For the compound `CCN(c1ccc(Cl)cc1C)S(=O)(=O)c1cc(Cl)ccc1Cl` [compound 12, 2,5-Dichloro-N-(4-chloro-2-methylphenyl)-N-ethylbenzenesulfonamide], the “antiviral activity as described in SAR text” value in the series with A/WSN/33 [1] is “generally more potent”. For the same compound, in the series on A/WSN/33 [1], the selectivity index is greater than 147. Also, the “number of infected cells” value in series [8] is given as “robustly reduced the number of cells infected”; in the series on H3N2 (A/Wyoming/03/2003), “more effectively decreased infection”. Also, the “Cytotoxicity (MTT) CC10” value in the series with A549 cells is greater than 5 µM.
The matching figures for `CCN(c1ccc(F)cc1F)S(=O)(=O)c1cc(Cl)ccc1Cl` [compound 21, 2,5-Dichloro-N-(2,4-difluorophenyl)-N-ethylbenzenesulfonamide]: “equipotent to compound 1”, greater than 96, “robustly reduced the number of cells infected”, “slightly inhibited the number of infected cells” and greater than 5 µM.
Turning to `O=S(=O)(c1cc(Cl)ccc1Cl)N1CCc2cc(Cl)ccc21` [compound 49, 5-Chloro-1-((2,5-dichlorophenyl)sulfonyl)indoline], the “activity under the assay conditions” value in the series on WSN-PB2-Nanoluc virus [9] was “inactive”.
Still for that read-out and setting: the same measure for `O=S(=O)(c1cc(Cl)ccc1Cl)N1CCCc2cc(Cl)ccc21` [compound 50, 6-Chloro-1-((2,5-dichlorophenyl)sulfonyl)-1,2,3,4-tetrahydroquinoline]: “inactive”.
On the same count and under the same terms, then `C#CCCC1(CCN(c2ccc(Cl)cc2C)S(=O)(=O)c2cc(Cl)ccc2Cl)N=N1` [compound 52, N-(2-(3-(But-3-yn-1-yl)-3H-diazirin-3-yl)ethyl)-2,5-dichloro-N-(4-chloro-2-methylphenyl)benzenesulfonamide], with “not active”; and `C#CCCC1(CCOC(=O)Cc2ccc(N(CC)S(=O)(=O)c3cc(Cl)ccc3Cl)cc2)N=N1` [compound 53, 2-(3-(But-3-yn-1-yl)-3H-diazirin-3-yl)ethyl 2-(4-((2,5-Dichloro-Nethylphenyl)sulfonamido)phenyl)acetate], with “not active”; and `C#CCN(c1cccc(N=[N+]=[N-])c1)S(=O)(=O)c1cc(Cl)ccc1Cl` [compound 54, N-(3-Azidophenyl)-2,5-dichloro-N-(prop-2-yn-1-yl)benzenesulfonamide], with “retained robust activity”.
